“Also recorded” adds a separate entry of the source.
Key:
[1] = system: human HL-60 tumor cell xenografts; assay: Subcutaneous HL-60 tumor xenograft model in SCID mice; format: in vivo
Description: (§1) Subcutaneous tumor model—HL-60 human promyelocytic leukemia cells (5×10^6 cells in 0.1 mL) were subcutaneously inoculated into the right flank of female SCID mice. Mice were treated by intravenous injection into a lateral tail vein starting when tumors reached 100 mm^3 in size (400 mm^3 in large tumor model). Tumor size and mouse body weight were measured twice per week. Survival model—HL-60 cells (5×10^6 cells in 0.1 mL) were intravenously injected into the lateral tail vein of female SCID mice. Eleven days after tumor cell injection treatment was started. Mice were checked every day for moribund, tumor mass, or death. Body weight was measured twice per week.
The efficacy of My9-6-DM1 in vivo was determined using SCID mice bearing human HL-60 tumor cell xenografts. HL-60 cells were injected subcutaneously and tumors were allowed to grow to an average size of 100 mm^3. Dosage is expressed as mg antibody in the conjugate, which corresponds to a DM1 dose of approximately 15 μg DM1 per mg of antibody. Tumor volume was measured as an indication of treatment efficacy and mouse body weight was monitored to indicate toxicity due to treatment.

[2] = target: T1, CD33 on CD33-positive U-937 cells (Homo sapiens, UniProt P20138); assay: Competition binding of 125I-labeled muMy9-6 to U-937 cells
T1 construct: endogenous in cells; host or cells: U-937 human histiocytic lymphoma cell line (ATCC CRL-1953.2)
Description: The My9-6 antibody has further been functionally characterized and shown to bind with high affinity to CD33 on the surface of CD33-positive U-937 cells (FIG. 1). ^125I-labeled My9-6 binds to U-937 cells and it is competed off the cells by unlabeled My9-6 and the previously characterized anti-CD33 antibody My9 (BioGenex, cat. no. 267M).
To further ascertain its specificity for binding to the CD33 antigen, a competition binding experiment was performed between labeled muMy9-6 and the commercially available anti-CD33 antibody My9. The binding experiment was performed using the method described by Goldmacher et al. (1989, J. Cell. Physiol. 141, 222-234). Murine My9-6 antibody was radiolabeled with ^125I using the Iodo-gen technique (Fraker, P. J. and Speck, J. C., 1978, Biochem. Biophys. Res. Commun. 80, 849-857). A constant amount (3×10^−9 M) of ^125I-labeled muMy9-6 was mixed with increasing concentrations of non-radioactive antibody, either unlabeled muMy9-6 or unlabelled My9, and the mixtures were incubated with cells (1×10^6 cells per sample) at 4° C. for 30 min. […] The cell pellet was then removed by cutting the centrifuge tubes at the oil interface and was used to measure the cell-associated radioactivity on a gamma-counter (model RIAgamma 1274 from LKB). The cell-associated radioactivity measured was […] against the concentrations of the unlabelled, competing antibodies. […]

[3] = system: HL-60 cells injected intravenously; assay: HL-60 cell mouse survival model; format: in vivo, SCID mice; conditions: treatment starting 11 days after cell injection
Description: FIGS. 24A & B show anti-tumor efficacy of My9-6-DM1 compared with Gentuzumab ozogamicin and standard chemotherapy in an HL-60 survival model. HL-60 cells were intravenously injected into SCID mice. Indicated treatments were started 11 days following injection of cells. Treatments were i.v. daily ×5 except for Gentuzumab ozogamicin (Q4D×3).
as §1
While the efficacy of My9-6-DM1 in the tumor xenograft model is striking, it is also of interest to look at the activity of the conjugate in a mouse survival model where HL-60 cells are injected directly into a mouse tail vein. In this model, control mice die between 30 and 50 days after cell injection. […] However, even in this model, standard chemotherapy provided no significant survival enhancement (FIG. 24B).

[4] = in vivo; cited from earlier work
large HL-60 tumors = assay: Large HL-60 tumor xenograft model in SCID mice; format: in vivo; conditions: for toxicity of higher drug doses: not shown; for effect on tumor growth: standard chemotherapeutic agents, tumor volume >400 mm^3
Description: as §1
Tumors were allowed to grow to a tumor volume of >400 mm^3 prior to the initiation of treatment. In addition, a comparison of the activity of My9-6-DM1 with standard chemotherapeutic drugs was conducted. […]

[5] = target: T2, CD33 on HL-60 membranes or whole cells (Homo sapiens, UniProt P20138); assay: Direct binding assays on HL-60 membranes and HL-60 whole cells
T2 construct: endogenous in cells; host or cells: HL-60 human leukemic cell line (whole cells; plasma membranes prepared from HL-60)
Description: HL-60 cells were harvested from T75 flasks (NUNCLON™, cat. no. 153732), and centrifuged at about 300×g for five minutes in an Omnifuge RT tabletop centrifuge (Haereus Separations, Germany), at 4° C. The cells were resuspended at a density of 3×10^6 cells per mL in FACS buffer, comprised of 2% (v/v) goat serum (Sigma Chemical Co., St Louis, Mo.) in MEM Alpha Medium, supplemented with L-glutamine (Life Technologies, Grand Island, N.Y.). Using a multichannel pipetor, 3×10^5 cells were added to wells of a Falcon 96-well round bottom plate (cat. no. 3077) and then placed on ice. Using a Falcon 96-well flexible assay plate (cat. no. 353911), eleven twofold serial dilutions of each test or control article were prepared in duplicate in FACS buffer, from a starting concentration of 2×10^−8 M. Then, 100 μl of either test or control article was mixed with the cells. Control wells only received FACS buffer. The plate was incubated on ice for one hour, and then centrifuged for five minutes at 300× g, in a refrigerated centrifuge. Reagents were removed from the plate wells by quick inversion over a waste beaker containing 10% bleach. […] The assay plate was then analyzed on a FACScan flow cytometer interfaced with an automated 96-well sampling device (Becton Dickinson, Mountain View, Calif.). […]

T1 sequence (P20138 18-364): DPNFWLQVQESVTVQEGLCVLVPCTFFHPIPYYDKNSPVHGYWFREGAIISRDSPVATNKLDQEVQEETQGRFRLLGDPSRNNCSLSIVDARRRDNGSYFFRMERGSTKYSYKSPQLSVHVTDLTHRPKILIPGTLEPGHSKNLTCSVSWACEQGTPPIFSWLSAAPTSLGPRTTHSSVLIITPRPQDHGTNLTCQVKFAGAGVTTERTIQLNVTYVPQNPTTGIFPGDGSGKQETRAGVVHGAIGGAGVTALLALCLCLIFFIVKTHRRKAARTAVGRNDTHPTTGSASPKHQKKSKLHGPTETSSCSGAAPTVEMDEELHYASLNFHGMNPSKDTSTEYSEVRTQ
T2 sequence (P20138 18-364): as above

My9-6: murine anti-CD33 monoclonal antibody, IgG1 kappa, hybridoma ATCC PTA-4786
effect on HL-60 tumor growth compared to vehicle control ([1]; antibody alone, dose not stated): no effect on HL-60 tumor growth
effect on tumor cell growth ([1]; antibody alone, even at 50 mg/kg): no effect on tumor cell growth
effect on tumor growth ([1]; unconjugated antibody 23 mg/kg daily for 5 days): no affect on tumor growth
competition binding curves against 125I-labeled muMy9-6 ([2]; 3×10^−9 M 125I-muMy9-6, U-937 cells, 4° C., 30 min): very similar competition binding curves
binding affinity / avidity for CD33 ([2]; CD33-positive U-937 cells): very similar binding avidities; also recorded: high affinity
effect on survival [3]: modest increase in survival

calicheamicin
toxicity in pre-clinical models [4]: hepatotoxicity

Nc1ccn([C@@H]2O[C@H](CO)[C@@H](O)[C@@H]2O)c(=O)n1 [Ara-C]
toxicity of higher drug doses (large HL-60 tumors): profoundly toxic
effect on tumor growth (large HL-60 tumors): little effect on tumor growth

CC(=O)[C@]1(O)Cc2c(O)c3c(c(O)c2[C@@H](O[C@H]2C[C@H](N)[C@H](O)[C@H](C)O2)C1)C(=O)c1ccccc1C3=O [idarubicin]
toxicity of higher drug doses (large HL-60 tumors): profoundly toxic
effect on tumor growth (large HL-60 tumors): little effect on tumor growth

COc1cc2cc(c1Cl)N(C)C(=O)C[C@H](OC(=O)[C@H](C)N(C)C(C)=O)[C@]1(C)O[C@H]1[C@H](C)[C@@H]1C[C@@](O)(NC(=O)O1)[C@H](OC)/C=C/C=C(\C)C2 [maytansine, reference compound]
mice that died two days after treatment ([1]; 350 μg/kg daily for 5 days): Three of 6
delay in tumor growth ([1]; 350 μg/kg daily for 5 days, remaining 3 mice): approximately 10 days
effect on survival [3]: significant impact on mouse survival
mice that died shortly after the start of treatment [3]: 2 of 8

B1: V1.0: most human resurfaced version of My9-6, all ten human surface residues (antibody, V domains shown)
VH: QVQLQQPGAEVVKPGASVKMSCKASGYTFTSYYIHWIKQTPGQGLEWVGVIYPGNDDISYNQKFQGKATLTADKSSTTAYMQLSSLTSEDSAVYYCAREVRLRYFDVWGQGTTVTVSS
VL: EIVLTQSPGSLAVSPGERVTMSCKSSQSVFFSSSQKNYLAWYQQIPGQSPRLLIYWASTRESGVPDRFTGSGSGTDFTLTISSVQPEDLAIYYCHQYLSSRTFGQGTKLEIKR
binding affinity relative to wild type ([5]; HL-60 membranes and whole cells): near wild type binding affinities
KD value compared with murine My9-6 ([5]; HL-60 membranes or whole cells, numbers only in FIG. 17): fall within the experimental error of the KD value of murine My9-6
